{"source": "patent US20260335319A1", "about": "“INJECTABLE COMPOSITIONS OF METOLAZONE” (CIPLA LIMITED, priority 2023, published 2026)", "origin": "cited, not measured here", "key": {"[1]": {"conditions": "relative to water"}}, "note": "Like-named read-outs stand apart in the source and are kept apart here."}
{"smiles": "Cc1ccccc1N1C(=O)c2cc(S(N)(=O)=O)c(Cl)cc2NC1C", "note": "(centres unmarked) [Metolazone, 7-chloro-1,2,3,4-tetrahydro-2-methyl-3-(2-methylphenyl)-4-oxo-6-quinazolinesulfonamide]", "values": [{"measurement": "absorption", "setting": "metolazone, general", "value": "variable absorption"}, {"measurement": "bioavailability", "setting": "metolazone, general", "value": "poor bioavailability"}, {"measurement": "absorption", "setting": "oral immediate release tablet", "value": "erratic absorption"}, {"measurement": "bioavailability", "setting": "oral immediate release tablet", "value": "variable bioavailability"}, {"measurement": "solubility in alkali and organic solvents", "setting": "[1]", "value": "more soluble in alkali, and organic solvents"}]}
